The values below come from ChEMBL document CHEMBL3832022, “DailyMed|setid=50ee3815-7675-4bc0-a88a-ab3886aea795 | ESTRING - estradiol ring|Physicians Total Care, Inc”.

A short description of data set [1]: (§1) Mean steady-state pharmacokinetic parameters for Estradiol evaluated after a single dose of 2 mg of Estradiol as estridiol vaginal ring. Conditions: human, in vivo, dosed compound id 17, dosed compound name ESTRADIOL, gender female, regimen Single dose, sampling time1 12 weeks, tissue Serum. More on the design: dose 2 mg, route vaginal. Type of data set: ADME, organism-based.

The next data set is filed under the species Homo sapiens. Described as §1. The class given is ADME, organism-based. Also noted: dose 2 mg, route vaginal. Conditions: in vivo, other, dosed compound id 17, dosed compound name ESTRADIOL, gender female, regimen Single dose, sampling time1 12 weeks, tissue Serum.

With `C[C@]12CC[C@@H]3c4ccc(O)cc4CC[C@H]3[C@@H]1CC[C@@H]2O` [ESTRADIOL], the Cmax – broadly, the maximum level reached in the sampled fluid or tissue – in data set [1] (2 mg) was 0.0632 ng/mL; in the data set filed under Homo sapiens it was 0.0556 ng/mL. The Tmax – broadly, the time at which the peak concentration occurs – in data set [1] (dose 2 mg, route vaginal) fell in the range of 30 to 60 min. In addition, the concentration at 12 weeks in data set [1] (dose 2 mg, route vaginal, read-out: Css-12w) was 0.008 ng/mL.
